Experimental data taken from patent US10513694B2, “Thienopyrrole compounds and uses thereof” (PROMEGA CORPORATION, priority 2015, dated 2019).
“Also recorded” adds a separate entry of the source.

Experiments:
[1] = biological target: T1, purified Nluc enzyme (Oplophorus gracilirostris, UniProt Q9GV45, A31E/A60N/A81I/F95D/I117V/K70R/L54V/L99Q/M102K/N193R/P142E/Q151K/Q38R/Q45L/V71I/Y165I); type: biochemical; conditions: titration up to 100 μM final; RT 2 hrs; pro-substrate PBI-4442 + DTT
T1 construct: purchased Promega Corporation
T1 sequence (Q9GV45 28-196 with tags or gaps with the stated changes limits assumed): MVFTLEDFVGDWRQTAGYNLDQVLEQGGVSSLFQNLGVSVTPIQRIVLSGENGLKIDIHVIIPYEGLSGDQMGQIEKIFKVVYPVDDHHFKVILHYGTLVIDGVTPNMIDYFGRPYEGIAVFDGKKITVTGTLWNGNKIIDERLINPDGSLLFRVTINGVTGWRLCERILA
Procedure: In a Corning 3570 assay plate, purified Nluc enzyme (Promega Corporation), 20 mM DTT, and an Nluc pro-substrate (PBI-4442, which is described in US Patent Publication No. 2013/0130289), which is converted to an Nluc substrate upon reduction with DTT, was added. Compound titrations of JRW-0004, JRW-0013, JRW-0006, JRW-0042, JRW-0138, and JRW-0147 were then made (1:2 serial dilution in PBS, 11 points plus no inhibitor control, starting at 200 μM; 100 μM final concentration in reaction). Compound titrations were added in equal volume to the wells of the assay plate. The reactions were incubated at RT for 2 hrs, and luminescence was measured on Tecan M1000 Pro plate reader. Half-maximal inhibitor (thienopyrrole compound) concentrations (IC50s) were determined using GraphPad Prism 6.03.

[2] = system: firefly luciferase, e.g., ULTRAGLO® luciferase; assay: Specificity of inhibition: firefly luciferase activity; type: biochemical; conditions: 1 μM luciferin in Luciferase Detection Reagent; RT 2 hrs
Procedure: (§1) The following example describes the specificity of disclosed thienopyrrole compounds, JRW-0004, JRW-0013, JRW-0006, JRW-0042, JRW-0138, and JRW-0147, to inhibit Nluc luciferase activity versus firefly luciferase activity, e.g., ULTRAGLO® luciferase. In a Corning 3570 assay plate, a solution containing 1 μM luciferin in Luciferase Detection Reagent (Promega Corporation V865/859) was added to the assay wells. An equal volume of titrations the thienopyrrole compounds, JRW-0004, JRW-0013, JRW-0006, JRW-0042, JRW-0138, and JRW-0147 were then added to the wells. The reactions were incubated at RT for 2 hrs, and luminescence was measured on Tecan M1000 Pro plate reader.

[3] = biological target: NANOLUC® enzyme (Oplophorus gracilirostris, UniProt Q9GV45, A31E/A60N/A81I/F95D/I117V/K70R/L54V/L99Q/M102K/N193R/P142E/Q151K/Q38R/Q45L/V71I/Y165I); assay: Inhibitor IC50 determination (NANOLUC enzyme, furimazine); type: biochemical; conditions: IC50 (uM), 0.4 ng/ml NANOLUC enzyme, final furimazine 10 uM (at Km)
Sequence of NANOLUC® enzyme (Q9GV45 28-196 with tags or gaps with the stated changes limits assumed): as above
Procedure: The following example provides the IC50 values for the compounds disclosed herein. See Table 5 NANOLUC® enzyme was diluted to 0.4 ng/ml in CO2 independent media+10% FBS to make the detection reagent. A 3× dilution series of each inhibitor was then made in the detection reagent. A “no inhibitor” control was also made for each sample. 50 ul of each inhibitor dilution was mixed with 50 ul of NanoGlo buffer containing 20 uM furimazine. (Final furimazine concentration is 10 uM which is at Km.), and luminescence measured. Each sample was normalized to the “no inhibitor” control. The […] values were then determined using GraphPad Prism (log [inhibitor] vs. normalized response).

[4] = biological target: Nluc (Oplophorus gracilirostris, UniProt Q9GV45, A31E/A60N/A81I/F95D/I117V/K70R/L54V/L99Q/M102K/N193R/P142E/Q151K/Q38R/Q45L/V71I/Y165I); assay: Specificity of inhibition of Nluc luciferase: Nluc; type: biochemical
Sequence of Nluc (Q9GV45 28-196 with tags or gaps with the stated changes limits assumed): as above

[5] = system: UltraGlo luciferase; assay: Specificity of inhibition of Nluc luciferase: UltraGlo luciferase; type: biochemical, firefly; conditions: RT 2 hrs
Procedure: as §1, with “JRW-0251, JRW-0344,” for “JRW-0004, JRW-0013, JRW-0006, JRW-0042, JRW-0138,”

[6] = biological target: Nluc luciferase (Oplophorus gracilirostris, UniProt Q9GV45, A31E/A60N/A81I/F95D/I117V/K70R/L54V/L99Q/M102K/N193R/P142E/Q151K/Q38R/Q45L/V71I/Y165I); assay: Inhibition of purified Nluc, dose and time dependence; type: biochemical; conditions: pro-substrate PBI-4442, DTT, TERGITOL, RT, various time points
Sequence of Nluc luciferase (Q9GV45 28-196 with tags or gaps with the stated changes limits assumed): as above
Procedure: A solution of purified Nluc and an Nluc pro-substrate (PBI-4442, which is described in US 2013/0130289), which is converted to an Nluc substrate upon reduction with DTT, were prepared in PBS buffer, pH 7.5. A 40 mM solution of DTT in PBS, pH 7.5 containing 1% TERGITOL was also prepared. Titrations of the thienopyrrole compounds JRW-0004, WZ141-88, WZ141-86, WZ141-74, WZ141-84, WZ141-89, WZ141-90, and WZ141-91 in the buffer containing DTT and TERGITOL were then prepared. An equal volume of the Nluc/pro-substrate solution was added to the thienopyrrole compound titrations in wells of an assay plate. The reactions were incubated at RT, and luminescence was measured at various time points on the Tecan M100 Pro plate reader (integration time 200 ms). IC50 values were determined using GraphPad Prism 6.03.

SMILES: CCN(C(=O)Cn1c(C(=O)NC2CCCCC2)cc2sccc21)c1cccc(C)c1 [JRW-0006, N-cyclohexyl-4-(2-(ethyl(m-tolyl)amino)-2-oxoethyl)-4H-thieno[3,2-b]pyrrole-5-carboxamide]
- Inhibition of purified Nluc enzyme (FIG. 2) [1]: capable of inhibiting purified Nluc enzyme
- Inhibition of firefly luciferase activity (FIG. 3) [2]: do not inhibit firefly luciferase activity; also recorded: did not inhibit the firefly luciferase activity
- IC50 [3]: 0.26 µM

SMILES: CCN(C(=O)Cn1c(C(=O)N[C@H]2CC[C@H](C(=O)NCCCCCCNC(=O)[C@H](CC(=O)O)NC(=O)[C@H](CC(=O)O)NC(=O)[C@H](CC(=O)O)NC(C)=O)CC2)cc2sccc21)c1cccc(C)c1 [JRW-0251, (11S,14S,17S)-17-acetamido-11,14-bis(carboxymethyl)-1-(trans-4-(4-(2-(ethyl(m-tolyl)amino)-2-oxoethyl)-4H-thieno[3,2-b]pyrrole-5-carboxamido)cyclohexyl)-1,10,13,16-tetraoxo-2,9,12,15-tetraazanonadecan-19-oic acid]
- Nluc, Avg (luminescence) ([4]; [cmpd] 0.1953125 μM): 108634
- Nluc, S/B ([4]; [cmpd] 0.1953125 μM): 0.95
- Nluc, Avg (luminescence) ([4]; [cmpd] 0.390625 μM): 106075
- Nluc, S/B ([4]; [cmpd] 0.390625 μM): 0.93
- Nluc, Avg (luminescence) ([4]; [cmpd] 0.78125 μM): 105881
- Nluc, S/B ([4]; [cmpd] 0.78125 μM): 0.92
- Nluc, Avg (luminescence) ([4]; [cmpd] 1.5625 μM): 96602
- Nluc, S/B ([4]; [cmpd] 1.5625 μM): 0.84
- Nluc, Avg (luminescence) ([4]; [cmpd] 3.125 μM): 86555
- Nluc, S/B ([4]; [cmpd] 3.125 μM): 0.76
- Nluc, Avg (luminescence) ([4]; [cmpd] 6.25 μM): 81193
- Nluc, S/B ([4]; [cmpd] 6.25 μM): 0.71
- Nluc, Avg (luminescence) ([4]; [cmpd] 12.5 μM): 68664
- Nluc, S/B ([4]; [cmpd] 12.5 μM): 0.60
- Nluc, Avg (luminescence) ([4]; [cmpd] 25 μM): 55210
- Nluc, S/B ([4]; [cmpd] 25 μM): 0.48
- Nluc, Avg (luminescence) ([4]; [cmpd] 50 μM): 44219
- Nluc, S/B ([4]; [cmpd] 50 μM): 0.39
- Nluc, Avg (luminescence) ([4]; [cmpd] 100 μM): 34389
- Nluc, S/B ([4]; [cmpd] 100 μM): 0.30
- Nluc, Avg (luminescence) ([4]; [cmpd] 200 μM): 23311
- Nluc, S/B ([4]; [cmpd] 200 μM): 0.20
- IC50 [3]: 0.077 µM
- Inhibition of firefly luciferase activity (Table 3) [5]: did not inhibit the firefly luciferase activity
- UltraGlo luciferase, Avg (luminescence) ([5]; [cmpd] 0.1953125 μM): 83059
- UltraGlo luciferase, S/B ([5]; [cmpd] 0.1953125 μM): 0.98
- UltraGlo luciferase, Avg (luminescence) ([5]; [cmpd] 0.390625 μM): 82723
- UltraGlo luciferase, S/B ([5]; [cmpd] 0.390625 μM): 0.98
- UltraGlo luciferase, Avg (luminescence) ([5]; [cmpd] 0.78125 μM): 82812
- UltraGlo luciferase, S/B ([5]; [cmpd] 0.78125 μM): 0.98
- UltraGlo luciferase, Avg (luminescence) ([5]; [cmpd] 1.5625 μM): 82370
- UltraGlo luciferase, S/B ([5]; [cmpd] 1.5625 μM): 0.98
- UltraGlo luciferase, Avg (luminescence) ([5]; [cmpd] 3.125 μM): 81125
- UltraGlo luciferase, S/B ([5]; [cmpd] 3.125 μM): 0.96
- UltraGlo luciferase, Avg (luminescence) ([5]; [cmpd] 6.25 μM): 83665
- UltraGlo luciferase, S/B ([5]; [cmpd] 6.25 μM): 0.99
- UltraGlo luciferase, Avg (luminescence) ([5]; [cmpd] 12.5 μM): 83569
- UltraGlo luciferase, S/B ([5]; [cmpd] 12.5 μM): 0.99
- UltraGlo luciferase, Avg (luminescence) ([5]; [cmpd] 25 μM): 83382
- UltraGlo luciferase, S/B ([5]; [cmpd] 25 μM): 0.99
- UltraGlo luciferase, Avg (luminescence) ([5]; [cmpd] 50 μM): 81930
- UltraGlo luciferase, S/B ([5]; [cmpd] 50 μM): 0.97
- UltraGlo luciferase, Avg (luminescence) ([5]; [cmpd] 100 μM): 79556
- UltraGlo luciferase, S/B ([5]; [cmpd] 100 μM): 0.94
- UltraGlo luciferase, Avg (luminescence) ([5]; [cmpd] 200 μM): 77788
- UltraGlo luciferase, S/B ([5]; [cmpd] 200 μM): 0.92

SMILES: CCN(C(=O)Cn1c(C(=O)O)cc2sccc21)c1cccc(C)c1 [WZ-141-74, 4-(2-(ethyl(m-tolyl)amino)-2-oxoethyl)-4H-thieno[3,2-b]pyrrole-5-carboxylic acid]
- Inhibition of Nluc luciferase, dose and time dependence (FIGS. 4-6) [6]: inhibit Nluc luciferase in a dose- and time-dependent manner
- IC50 [3]: 16.4 µM

SMILES: CCN(C(=O)Cn1c(C(=O)NC)cc2sccc21)c1cccc(C)c1 [WZ-141-84, 4-(2-(ethyl(m-tolyl)amino)-2-oxoethyl)-N-methyl-4H-thieno[3,2-b]pyrrole-5-carboxamide]
- Inhibition of Nluc luciferase, dose and time dependence (FIGS. 4-6) [6]: inhibit Nluc luciferase in a dose- and time-dependent manner
- IC50 [3]: 5.5 µM

SMILES: COC(=O)c1cc2sccc2n1CC(=O)N(Cc1ccccc1)c1cccc(C)c1 [WZ-141-86, methyl 4-(2-(benzyl(m-tolyl)amino)-2-oxoethyl)-4H-thieno[3,2-b]pyrrole-5-carboxylate]
- Inhibition of Nluc luciferase, dose and time dependence (FIGS. 4-6) [6]: inhibit Nluc luciferase in a dose- and time-dependent manner

SMILES: CCN(C(=O)Cn1c(C(=O)NC2CCCC2)cc2sccc21)c1cccc(C)c1 [WZ-141-88, N-cyclopentyl-4-(2-(ethyl(m-tolyl)amino)-2-oxoethyl)-4H-thieno[3,2-b]pyrrole-5-carboxamide]
- Inhibition of Nluc luciferase, dose and time dependence (FIGS. 4-6) [6]: inhibit Nluc luciferase in a dose- and time-dependent manner
- IC50 [3]: 0.54 µM

SMILES: CCN(C(=O)Cn1c(C(=O)NCc2ccncc2)cc2sccc21)c1cccc(C)c1 [WZ-141-89, 4-(2-(ethyl(m-tolyl)amino)-2-oxoethyl)-N-(pyridin-4-ylmethyl)-4H-thieno[3,2-b]pyrrole-5-carboxamide]
- Inhibition of Nluc luciferase, dose and time dependence (FIGS. 4-6) [6]: inhibit Nluc luciferase in a dose- and time-dependent manner

SMILES: CCN(C(=O)Cn1c(C(=O)NCCCN2CCOCC2)cc2sccc21)c1cccc(C)c1 [WZ-141-90, 4-(2-(ethyl(m-tolyl)amino)-2-oxoethyl)-N-(3-morpholinopropyl)-4H-thieno[3,2-b]pyrrole-5-carboxamide]
- Inhibition of Nluc luciferase, dose and time dependence (FIGS. 4-6) [6]: inhibit Nluc luciferase in a dose- and time-dependent manner

SMILES: CCN(C(=O)Cn1c(C(=O)N2CCN(C)CC2)cc2sccc21)c1cccc(C)c1 [WZ-141-91, N-ethyl-2-(5-(4-methylpiperazine-1-carbonyl)-4H-thieno[3,2-b]pyrrol-4-yl)-N-(m-tolyl)acetamide]
- Inhibition of Nluc luciferase, dose and time dependence (FIGS. 4-6) [6]: inhibit Nluc luciferase in a dose- and time-dependent manner
